# Experimental data: patent US12310975B2, “Modulators of BCL6 proteolysis and associated methods of use” (Arvinas Operations, Inc., priority 2019, dated 2025)
# Target: BCL6 (Homo sapiens (Human), UniProt P41182)
# Assay: Immunofluorescence high content imaging of BCL6 degradation in T47D cells
# Type: cell-based
# Details: not given
# Outline: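 BCL6 loss was quantified by high-content imaging (10×, 4 fields/well) after PFA fixation and anti-BCL6/Alexa-488 staining with Hoechst nuclear and CellMask counterstains. Compounds were applied for 3 days to T47D breast cancer cells in RPMI-10% FBS, 11 points, 3-fold steps, top 0.1 or 1 μM.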
row,Structure (SMILES),IC50
1,"CNC(=O)COc1cc2cc(Nc3nc(N4CCC(CN5CC6(C5)CN(c5ccc7c(c5)C(=O)N(C5CCC(=O)NC5=O)C7=O)C6)CC4)ncc3Cl)ccc2n(C)c1=O (stereo not shown) [compound 248, 2-((6-((5-chloro-2-(4-((6-(2-(2,6-dioxopiperidin-3-yl)-1,3-dioxoisoindolin-5-yl)-2,6-diazaspiro[3.3]heptan-2-yl)methyl)piperidin-1-yl)pyrimidin-4-yl)amino)-1-methyl-2-oxo-1,2-dihydroquinolin-3-yl)oxy)-N-methylacetamide]",≥ 100 nM
2,"CC(=O)COc1cc2cc(Nc3nc(N4CCC(OC5CN(c6ccc7c(c6)C(=O)N(C6CCC(=O)NC6=O)C7=O)C5)CC4)ncc3Cl)ccc2n(C)c1=O (stereo not shown) [compound 178, 5-(3-((1-(5-chloro-4-((1-methyl-2-oxo-3-(2-oxopropoxy)-1,2-dihydroquinolin-6-yl)amino)pyrimidin-2-yl)piperidin-4-yl)oxy)azetidin-1-yl)-2-(2,6-dioxopiperidin-3-yl)isoindoline-1,3-dione]",10 to 50 nM

# Same assay, conditions: T47D
row,Structure (SMILES),Dmax
1,"CNC(=O)COc1cc2cc(Nc3cc(N4CCN(CC5CCN(c6ccc7c(c6)C(=O)N(C6CCC(=O)NC6=O)C7=O)CC5)CC4)ncc3Cl)ccc2n(C)c1=O (stereo not shown) [compound 253, 2-((6-((5-chloro-2-(4-((1-(2-(2,6-dioxopiperidin-3-yl)-1,3-dioxoisoindolin-5-yl)piperidin-4-yl)methyl)piperazin-1-yl)pyridin-4-yl)amino)-1-methyl-2-oxo-1,2-dihydroquinolin-3-yl)oxy)-N-methylacetamide]",≥ 70%
2,"CC(=O)COc1cc2cc(Nc3nc(N4CCC(OC5CN(c6ccc7c(c6)C(=O)N(C6CCC(=O)NC6=O)C7=O)C5)CC4)ncc3Cl)ccc2n(C)c1=O (stereo not shown) [compound 178, 5-(3-((1-(5-chloro-4-((1-methyl-2-oxo-3-(2-oxopropoxy)-1,2-dihydroquinolin-6-yl)amino)pyrimidin-2-yl)piperidin-4-yl)oxy)azetidin-1-yl)-2-(2,6-dioxopiperidin-3-yl)isoindoline-1,3-dione]",< 50%

# Same assay, conditions: T47D cells
Structure (SMILES),IC50,Dmax
"CNC(=O)COc1cc2cc(Nc3nc(N4CCN(CC5CCN(C(=O)c6cccc(N7CCC(=O)NC7=O)c6)CC5)CC4)ncc3Cl)ccc2n(C(C)C)c1=O [compound 407, 2-{[6-({5-chloro-2-[4-({1-[3-(2,4-dioxo-1,3-diazinan-1-yl)benzoyl]piperidin-4-yl}methyl)piperazin-1-yl]pyrimidin-4-yl}amino)-2-oxo-1-(propan-2-yl)-1,2-dihydroquinolin-3-yl]oxy}-N-methylacetamide]",≥ 100 nM,
"CNC(=O)COc1cc2cc(Nc3nc(N4CCC(OC5CC6(C5)CN(c5cccc(C(=O)NC7CCC(=O)NC7=O)c5F)C6)CC4)ncc3Cl)ccc2n(C(C)C)c1=O (stereo not shown) [compound 430, 3-[6-({1-[5-chloro-4-({3-[(methylcarbamoyl)methoxy]-2-oxo-1-(propan-2-yl)-1,2-dihydroquinolin-6-yl}amino)pyrimidin-2-yl]piperidin-4-yl}oxy)-2-azaspiro[3.3]heptan-2-yl]-N-(2,6-dioxopiperidin-3-yl)-2-fluorobenzamide]",10 to 50 nM,50 to 70%
"CNC(=O)COc1cc2cc(Nc3nc(N4CCC5(CC4)CN(CC4CCN(c6cccc7c6CN(C6CCC(=O)NC6=O)C7=O)CC4)C5)ncc3Cl)ccc2n(C(C)C)c1=O (stereo not shown) [compound 443, 2-{[6-({5-chloro-2-[2-({1-[2-(2,6-dioxopiperidin-3-yl)-1-oxo-2,3-dihydro-1H-isoindol-4-yl]piperidin-4-yl}methyl)-2,7-diazaspiro[3.5]nonan-7-yl]pyrimidin-4-yl}amino)-2-oxo-1-(propan-2-yl)-1,2-dihydroquinolin-3-yl]oxy}-N-methylacetamide]",< 10 nM,50 to 70%
"CNC(=O)COc1cc2cc(Nc3nc(N4CCC(OC5CC6(CCN(c7ccc8c(c7)CN(C7CCC(=O)NC7=O)C8=O)CC6)C5)CC4)ncc3Cl)ccc2n(C(C)C)c1=O (stereo not shown) [compound 431, 2-{[6-({5-chloro-2-[4-({7-[2-(2,6-dioxopiperidin-3-yl)-1-oxo-2,3-dihydro-1H-isoindol-5-yl]-7-azaspiro[3.5]nonan-2-yl}oxy)piperidin-1-yl]pyrimidin-4-yl}amino)-2-oxo-1-(propan-2-yl)-1,2-dihydroquinolin-3-yl]oxy}-N-methylacetamide]",< 10 nM,50 to 70%
"CNC(=O)COc1cc2cc(Nc3nc(N4CCC(CCN5CCN(c6ccc7c(c6)C(=O)N(C6CCC(=O)NC6=O)C7=O)CC5)CC4)ncc3Cl)ccc2n(C)c1=O (stereo not shown) [compound 353, 2-{[6-({5-chloro-2-[4-(2-(4-[2-(2,6-dioxopiperidin-3-yl)-1,3-dioxo-2,3-dihydro-1H-isoindol-5-yl]piperazin-1-yl}ethyl)piperidin-1-yl]pyrimidin-4-yl}amino)-1-methyl-2-oxo-1,2-dihydroquinolin-3-yl]oxy}-N-methylacetamide]",< 10 nM,50 to 70%

# Same assay, conditions: class symbols A-D, read-out: EC50 (nM)*
row,Structure (SMILES),DC50
1,"O=C1CCC(N2C(=O)c3ccc(N4CCN(CC5CCN(c6cc(Nc7ccc8c(c7)CCC(=O)N8)c(Cl)cc6[N+](=O)[O-])CC5)CC4)cc3C2=O)C(=O)N1 (stereo not shown) [compound 92, 5-(4-((1-(4-chloro-2-nitro-5-((2-oxo-1,2,3,4-tetrahydroquinolin-6-yl)amino)phenyl)piperidin-4-yl)methyl)piperazin-1-yl)-2-(2,6-dioxopiperidin-3-yl)isoindoline-1,3-dione]",> 100 nM
2,"CNC(=O)COc1cc2cc(Nc3nc(N4CCC(c5cn(CCOCCOCCOCCOCCOc6ccc7c(c6)C(=O)N(C6CCC(=O)NC6=O)C7=O)nn5)CC4)ncc3Cl)ccc2n(C)c1=O (stereo not shown) [compound 121, 2-((6-((5-chloro-2-(4-(1-(14-((2-(2,6-dioxopiperidin-3-yl)-1,3-dioxoisoindolin-5-yl)oxy)-3,6,9,12-tetraoxatetradecyl)-1H-1,2,3-triazol-4-yl)piperidin-1-yl)pyrimidin-4-yl)amino)-1-methyl-2-oxo-1,2-dihydroquinolin-3-yl)oxy)-N-methylacetamide]",50 to 100 nM
3,"CNC(=O)COc1cc2cc(Nc3nc(N4CCC(OCCOCCOc5ccc6c(c5)C(=O)N(C5CCC(=O)NC5=O)C6=O)CC4)ncc3Cl)ccc2n(C)c1=O (stereo not shown) [compound 63, 2-((6-((5-chloro-2-(4-(2-(2-((2-(2,6-dioxopiperidin-3-yl)-1,3-dioxoisoindolin-5-yl)oxy)ethoxy)ethoxy)piperidin-1-yl)pyrimidin-4-yl)amino)-1-methyl-2-oxo-1,2-dihydroquinolin-3-yl)oxy)-N-methylacetamide]",10 to 50 nM
4,"CNC(=O)COc1cc2cc(Nc3nc(N4CCC(c5cn(CCOCCOCCOCCOCCOCC(=O)N[C@H](C(=O)N6C[C@H](O)C[C@H]6C(=O)N[C@@H](C)c6ccc(-c7scnc7C)cc6)C(C)(C)C)nn5)CC4)ncc3Cl)ccc2n(C)c1=O [compound 117, (2S,4R)-1-((S)-2-(tert-butyl)-20-(4-(1-(5-chloro-4-((1-methyl-3-(2-(methylamino)-2-oxoethoxy)-2-oxo-1,2-dihydroquinolin-6-yl)amino)pyrimidin-2-yl)piperidin-4-yl)-1H-1,2,3-triazol-1-yl)-4-oxo-6,9,12,15,18-pentaoxa-3-azaicosanoyl)-4-hydroxy-N-((S)-1-(4-(4-methylthiazol-5-yl)phenyl)ethyl)pyrrolidine-2-carboxamide]",10 to 50 nM
5,"CNC(=O)COc1cc2cc(Nc3nc(N4CCC(OCCN5CCC(N6CCC(OCC#Cc7ccc8c(c7)CN(C7CCC(=O)NC7=O)C8=O)CC6)CC5)CC4)ncc3Cl)ccc2n(C)c1=O (stereo not shown) [compound 143, 2-((6-((5-chloro-2-(4-(2-(4-((3-(2-(2,6-dioxopiperidin-3-yl)-1-oxoisoindolin-5-yl)prop-2-yn-1-yl)oxy)-[1,4′-bipiperidin]-1′-yl)ethoxy)piperidin-1-yl)pyrimidin-4-yl)amino)-1-methyl-2-oxo-1,2-dihydroquinolin-3-yl)oxy)-N-methylacetamide]",10 to 50 nM
6,"CNC(=O)COc1cc2cc(Nc3nc(N4CCC(OCCOCCOCCOCCOCC(=O)N[C@H](C(=O)N5C[C@H](O)C[C@H]5C(=O)NCc5ccc(-c6scnc6C)cc5)C(C)(C)C)CC4)ncc3Cl)ccc2n(C)c1=O [compound 78, (2S,4R)-1-((S)-2-(tert-butyl)-17-((1-(5-chloro-4-((1-methyl-3-(2-(methylamino)-2-oxoethoxy)-2-oxo-1,2-dihydroquinolin-6-yl)amino)pyrimidin-2-yl)piperidin-4-yl)oxy)-4-oxo-6,9,12,15-tetraoxa-3-azaheptadecanoyl)-4-hydroxy-N-(4-(4-methylthiazol-5-yl)benzyl)pyrrolidine-2-carboxamide]",10 to 50 nM
7,"CNC(=O)COc1cc2cc(Nc3nc(N4CCC(OCCOCCOCCCCOc5ccc(-c6ccc7c(c6)CN(C6CCC(=O)NC6=O)C7=O)cc5)CC4)ncc3Cl)ccc2n(C)c1=O (stereo not shown) [compound 94, 2-((6-((5-chloro-2-(4-(2-(2-(4-(4-(2-(2,6-dioxopiperidin-3-yl)-1-oxoisoindolin-5-yl)phenoxy)butoxy)ethoxy)ethoxy)piperidin-1-yl)pyrimidin-4-yl)amino)-1-methyl-2-oxo-1,2-dihydroquinolin-3-yl)oxy)-N-methylacetamide]",> 100 nM
8,"CNC(=O)COc1cc2cc(Nc3nc(N4CCC(OCCOCCOCC(=O)N[C@H](C(=O)N5C[C@H](O)C[C@H]5C(=O)NCc5ccc(-c6scnc6C)cc5)C(C)(C)C)CC4)ncc3Cl)ccc2n(C)c1=O [compound 70, (2S,4R)-1-((S)-2-(2-(2-(2-((1-(5-chloro-4-((1-methyl-3-(2-(methylamino)-2-oxoethoxy)-2-oxo-1,2-dihydroquinolin-6-yl)amino)pyrimidin-2-yl)piperidin-4-yl)oxy)ethoxy)ethoxy)acetamido)-3,3-dimethylbutanoyl)-4-hydroxy-N-(4-(4-methylthiazol-5-yl)benzyl)pyrrolidine-2-carboxamide]",> 100 nM
9,"CNC(=O)COc1cc2cc(Nc3nc(N4CCC(OCCOCCOCCOCCOCCOCCOc5ccc6c(c5)CN(C5CCC(=O)NC5=O)C6=O)CC4)ncc3Cl)ccc2n(C)c1=O (stereo not shown) [compound 67, 2-((6-((5-chloro-2-(4-((17-((2-(2,6-dioxopiperidin-3-yl)-1-oxoisoindolin-5-yl)oxy)-3,6,9,12,15-pentaoxaheptadecyl)oxy)piperidin-1-yl)pyrimidin-4-yl)amino)-1-methyl-2-oxo-1,2-dihydroquinolin-3-yl)oxy)-N-methylacetamide]",> 100 nM
